Measurements reported in patent US10017527B2, “KLK4 inhibitors” (Universiteit Antwerpen, priority 2014, dated 2018).
pIC50: −log10 of the molar value.

Target: T1, Matriptase (Homo sapiens, UniProt Q9Y5Y6)
T1 sequence (Q9Y5Y6 1-855): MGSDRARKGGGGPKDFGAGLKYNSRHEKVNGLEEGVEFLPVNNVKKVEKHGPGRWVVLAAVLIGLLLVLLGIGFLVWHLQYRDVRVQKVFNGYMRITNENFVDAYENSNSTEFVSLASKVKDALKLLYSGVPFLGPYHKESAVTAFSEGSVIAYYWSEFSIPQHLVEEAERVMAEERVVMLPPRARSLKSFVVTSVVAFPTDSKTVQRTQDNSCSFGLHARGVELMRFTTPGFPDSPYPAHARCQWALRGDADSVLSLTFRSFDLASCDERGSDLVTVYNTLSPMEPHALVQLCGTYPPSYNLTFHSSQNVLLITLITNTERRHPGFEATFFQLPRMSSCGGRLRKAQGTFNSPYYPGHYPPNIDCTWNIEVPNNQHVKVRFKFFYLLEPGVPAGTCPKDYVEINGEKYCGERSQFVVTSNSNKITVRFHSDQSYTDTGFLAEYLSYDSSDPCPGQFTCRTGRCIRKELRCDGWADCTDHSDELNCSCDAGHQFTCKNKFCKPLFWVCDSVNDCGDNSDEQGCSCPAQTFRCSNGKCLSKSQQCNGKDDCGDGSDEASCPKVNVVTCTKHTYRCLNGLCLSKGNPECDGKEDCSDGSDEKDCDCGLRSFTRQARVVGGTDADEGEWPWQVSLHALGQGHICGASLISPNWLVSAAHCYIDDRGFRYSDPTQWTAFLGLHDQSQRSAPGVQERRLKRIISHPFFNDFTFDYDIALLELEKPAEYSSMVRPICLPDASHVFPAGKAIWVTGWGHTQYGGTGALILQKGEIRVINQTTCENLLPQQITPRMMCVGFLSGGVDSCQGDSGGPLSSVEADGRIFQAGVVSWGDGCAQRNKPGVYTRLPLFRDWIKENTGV
Assay: Matriptase inhibition
Format: biochemical
Settings: Matriptase; read-out: IC50 MAT

Row | SMILES | pIC50
1 | COCCOCCOC(=O)NC(c1ccc(NC(=N)N)cc1)P(=O)(Oc1ccccc1)Oc1ccccc1.O=C(O)C(F)(F)F (centres unmarked) [Compound 28, 2-(2-methoxyethoxy)ethyl((diphenoxyphosphoryl)(4-guanidinophenyl)methyl) carbamate 2,2,2-trifluoroacetate] | 5.00 to 5.60
2 | N=C(N)Nc1ccc(C(NC(=O)OCCOc2ccccc2)P(=O)(Oc2ccccc2)Oc2ccccc2)cc1.O=C(O)C(F)(F)F (centres unmarked) [Compound 30, 2-phenoxyethyl((diphenoxyphosphoryl)(4-guanidinophenyl)methyl)carbamate 2,2,2-trifluoroacetate] | 5.00 to 5.60
